Reference: patent US9670212B2, “Inhibitors of PI3K-delta and methods of their use and manufacture” (Exelixis, Inc., priority 2010, dated 2017)
pIC50: −log10 of the molar value.

Each compound was assayed against PI3K delta (Homo sapiens (Human), UniProt O00329) (assay: Luciferase-coupled chemiluminescence kinase assay (KinaseGlo, ATP consumption)).
Type: biochemical
Protocol: Kinase activity and compound inhibition were investigated using one or more of the assay formats described below. The ATP concentrations used in the various assays were approximately equal to or less than the KM for each of the respective kinases. Dose-response experiments were performed using an intra-plate dilution scheme with 10 different inhibitor concentrations in a 384-well microtiter plate. […] Typically N should approximate unity. Curve fitting was performed using XLFit or ActivityBase. Luciferase-Coupled Chemiluminescence Assay Protocol
Kinase activity is measured as the percent of ATP consumed following the kinase reaction using luciferase-luciferin-coupled chemiluminescence. […] Kinase reactions were initiated by combining test compounds, kinase, and ATP in a 20 μL volume (6 μL volume for 1536-well plate). The reaction mixture was incubated at ambient temperature for 2 h. Following the kinase reaction, a 20 μL (or 3 μL for 1536-well plate) aliquot of KinaseGlo (Promega) was added and the chemiluminescence signal measured using an EnVision plate reader (Perkin Elmer).

PI3K delta, sequence (O00329 whole entry): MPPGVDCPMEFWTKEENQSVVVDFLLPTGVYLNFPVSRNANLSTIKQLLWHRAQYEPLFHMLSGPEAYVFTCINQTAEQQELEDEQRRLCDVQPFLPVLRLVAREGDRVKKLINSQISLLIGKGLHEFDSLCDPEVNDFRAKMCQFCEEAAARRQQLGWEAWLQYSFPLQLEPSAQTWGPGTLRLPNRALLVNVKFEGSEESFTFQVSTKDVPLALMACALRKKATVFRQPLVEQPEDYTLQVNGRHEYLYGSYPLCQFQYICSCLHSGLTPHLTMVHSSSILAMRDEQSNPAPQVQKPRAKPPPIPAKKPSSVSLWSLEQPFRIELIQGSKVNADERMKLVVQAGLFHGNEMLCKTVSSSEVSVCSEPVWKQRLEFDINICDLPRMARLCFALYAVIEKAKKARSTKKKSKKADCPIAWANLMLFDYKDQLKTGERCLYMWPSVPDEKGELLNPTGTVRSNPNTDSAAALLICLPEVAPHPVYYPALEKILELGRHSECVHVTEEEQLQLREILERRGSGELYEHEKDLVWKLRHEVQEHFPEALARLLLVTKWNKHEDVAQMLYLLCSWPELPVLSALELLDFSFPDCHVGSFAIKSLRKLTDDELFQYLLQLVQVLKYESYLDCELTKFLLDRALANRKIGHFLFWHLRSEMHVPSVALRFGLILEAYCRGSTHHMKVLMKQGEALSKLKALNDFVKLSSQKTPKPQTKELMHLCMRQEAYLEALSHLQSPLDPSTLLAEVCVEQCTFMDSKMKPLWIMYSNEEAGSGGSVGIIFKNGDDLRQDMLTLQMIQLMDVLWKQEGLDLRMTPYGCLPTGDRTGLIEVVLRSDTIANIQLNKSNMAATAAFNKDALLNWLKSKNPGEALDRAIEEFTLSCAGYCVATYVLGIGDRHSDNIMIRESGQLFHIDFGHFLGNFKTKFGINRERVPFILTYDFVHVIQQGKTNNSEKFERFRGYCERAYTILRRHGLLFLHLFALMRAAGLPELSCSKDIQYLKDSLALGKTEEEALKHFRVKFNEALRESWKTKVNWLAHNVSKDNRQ
PI3K delta, sequence (P27986 whole entry partner): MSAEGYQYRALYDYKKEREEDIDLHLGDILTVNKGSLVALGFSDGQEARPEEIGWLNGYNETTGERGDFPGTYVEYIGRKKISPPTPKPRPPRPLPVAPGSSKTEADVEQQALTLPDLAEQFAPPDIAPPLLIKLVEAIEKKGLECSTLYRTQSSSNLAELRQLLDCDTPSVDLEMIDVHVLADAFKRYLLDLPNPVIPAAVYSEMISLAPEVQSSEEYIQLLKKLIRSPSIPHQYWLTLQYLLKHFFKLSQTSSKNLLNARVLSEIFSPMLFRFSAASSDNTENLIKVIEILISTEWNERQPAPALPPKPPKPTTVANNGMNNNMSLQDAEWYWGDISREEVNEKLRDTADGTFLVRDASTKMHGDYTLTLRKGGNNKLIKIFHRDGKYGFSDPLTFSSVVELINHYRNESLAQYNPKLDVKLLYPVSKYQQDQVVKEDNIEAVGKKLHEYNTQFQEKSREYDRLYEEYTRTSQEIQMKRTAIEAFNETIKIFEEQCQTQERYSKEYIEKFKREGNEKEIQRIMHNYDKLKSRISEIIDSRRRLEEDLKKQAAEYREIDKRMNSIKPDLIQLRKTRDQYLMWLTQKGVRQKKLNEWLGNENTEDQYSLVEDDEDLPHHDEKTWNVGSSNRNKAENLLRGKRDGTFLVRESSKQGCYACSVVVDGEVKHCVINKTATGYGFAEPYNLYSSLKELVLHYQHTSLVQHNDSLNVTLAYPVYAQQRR

Row | Structure (SMILES) | pIC50
1 | Cc1cccc2cc(COc3ccc4c(c3)OCO4)c(-c3ccccc3Cl)nc12 [Compound 8, 3-[(1,3-benzodioxol-5-yloxy)methyl]-2-(2-chlorophenyl)-8-methylquinoline] | 5.82 to 6.30
2 | CNCCN(C)c1nc2c(C)cccc2cc1-c1nnc(-c2nccnc2N)o1 [Compound 29, N-{3-[5-(3-aminopyrazin-2-yl)-1,3,4-oxadiazol-2-yl]-8-methylquinolin-2-yl}-N,N′-dimethylethane-1,2-diamine] | 5.82 to 6.30
3 | Cc1cccc2cc(CNc3cccc4c3OCCO4)c(-c3ccccc3Cl)nc12 [Compound 5] | 5.82 to 6.30
4 | Cc1ccc(CN2CCCN(c3nc4c(C)cccc4cc3CNC(=O)c3nccnc3N)CC2)o1 [Compound 58, 3-amino-N-[(8-methyl-2-{4-[(5-methylfuran-2-yl)methyl]-1,4-diazepan-1-yl}quinolin-3-yl)methyl]pyrazine-2-carboxamide] | 5.82 to 6.30
5 | Cc1cccc2cc(CNC(=O)c3nccnc3N)c(N(C)CCN(C)C(=O)[C@H]3CCCN3C(C)C)nc12 [Compound 73, 3-amino-N-({8-methyl-2-[methyl(2-{methyl[1-(1-methylethyl)-D-prolyl]amino}ethyl)amino]quinolin-3-yl}methyl)pyrazine-2-carboxamide] | > 7.30
6 | Cc1cccc2cc(CNC(=O)c3nccnc3N)c(N3CCCN(C(=O)Cn4ccnn4)CC3)nc12 [Compound 60, 3-amino-N-({8-methyl-2-[4-(1H-1,2,3-triazol-1-ylacetyl)-1,4-diazepan-1-yl]quinolin-3-yl}methyl)pyrazine-2-carboxamide] | 6.30 to 6.60
7 | Cc1cccc2cc(CNc3ncnc4[nH]cnc34)c(N3CCNCC3)nc12 [Compound 37, N-[(8-methyl-2-piperazin-1-ylquinolin-3-yl)methyl]-9H-purin-6-amine] | > 7.30
8 | Cc1ccccc1-c1cc2ccccc2nc1CNC(=O)c1ncc(Cl)nc1N [Compound 107, 3-amino-5-chloro-N-{[3-(2-methylphenyl)quinolin-2-yl]methyl}pyrazine-2-carboxamide] | 5.82 to 6.30
9 | Cc1ccccc1-c1cc2ccccc2nc1C(C)NC(=O)c1nccnc1N (centres unmarked) [Compound 75, 3-amino-N-{1-[3-(2-methylphenyl)quinolin-2-yl]ethyl}pyrazine-2-carboxamide] | 6.30 to 6.60
10 | Nc1nccnc1C(=O)NCc1nc2ccccc2cc1-c1cscn1 [Compound 91, 3-amino-N-{[3-(1,3-thiazol-4-yl)quinolin-2-yl]methyl}pyrazine-2-carboxamide] | 5.82 to 6.30
11 | Cc1ccccc1-c1cc2c(C)cccc2nc1CNC(=O)c1nccnc1N [Compound 118, 3-amino-N-{[5-methyl-3-(2-methylphenyl)quinolin-2-yl]methyl}pyrazine-2-carboxamide] | 6.30 to 6.60
12 | COCCN(C)c1nc2c(C)cccc2cc1CNC(=O)c1nccnc1N [Compound 104, 3-amino-N-[(8-methyl-2-{methyl[2-(methyloxy)ethyl]amino}quinolin-3-yl)methyl]pyrazine-2-carboxamide] | 5.82 to 6.30
13 | Cc1cccc2cc(CNC(=O)c3nccnc3N)c(N(C)CCN(C)C(=O)Cn3nccn3)nc12 [Compound 94, 3-amino-N-{[8-methyl-2-(methyl{2-[methyl(2H-1,2,3-triazol-2-ylacetyl)amino]ethyl}amino)quinolin-3-yl]methyl}pyrazine-2-carboxamide] | 6.60 to 7.30
14 | Cc1cccc2cc(CNC(=O)c3nccnc3N)c(N(C)C3CCN(C)CC3)nc12 [Compound 99, 3-amino-N-({8-methyl-2-[methyl(1-methylpiperidin-4-yl)amino]quinolin-3-yl}methyl)pyrazine-2-carboxamide] | 6.60 to 7.30
15 | CNCCOc1nc2c(C)cccc2cc1CNC(=O)c1nccnc1N [Compound 122, 3-amino-N-[(8-methyl-2-{[2-(methylamino)ethyl]oxy}quinolin-3-yl)methyl]pyrazine-2-carboxamide] | 5.82 to 6.30
16 | Cc1cccc2cc(CNC(=O)c3nccnc3N)c(CCCO)nc12 [Compound 50, 3-amino-N-{[2-(3-hydroxypropyl)-8-methylquinolin-3-yl]methyl}pyrazine-2-carboxamide] | 5.82 to 6.30
17 | Cc1cccc2cc(CNc3ncnc4[nH]cnc34)c(N(C)CCN(C)C(=O)Cn3ccnn3)nc12 [Compound 35, N-methyl-N-[2-(methyl{8-methyl-3-[(9H-purin-6-ylamino)methyl]quinolin-2-yl}amino)ethyl]-2-(1H-1,2,3-triazol-1-yl)acetamide] | > 7.30

Further lines, results first:

Row | pIC50 | Structure (SMILES)
18 | > 7.30 | Cc1cccc2cc(CNC(=O)c3nccnc3N)c(N(C)CCN(C)C)nc12 [Compound 128, 3-amino-N-[(2-{[2-(dimethylamino)ethyl](methyl)amino}-8-methylquinolin-3-yl)methyl]pyrazine-2-carboxamide]
19 | 6.60 to 7.30 | Cc1cccc2cc(Cn3cnc4c(N)ncnc43)c(-c3ccccc3Cl)nc12 [Compound 187, 9-{[2-(2-chlorophenyl)-8-methylquinolin-3-yl]methyl}-9H-purin-6-amine]
20 | 6.30 to 6.60 | Cc1cccc2cc(CNC(=O)c3nccnc3N)c(N3CCCN(C(=O)CN(C)C)CC3)nc12 [Compound 137, 3-amino-N-({2-[4-(N,N-dimethylglycyl)-1,4-diazepan-1-yl]-8-methylquinolin-3-yl}methyl}pyrazine-2-carboxamide]
21 | 6.30 to 6.60 | Cc1cccc2cc(CNC(=O)c3nccnc3N)c(N3CC(C)NC[C@H]3C)nc12 (stereo in doubt) [Compound 123, 3-amino-N-({2-[(2R,5S)-2,5-dimethylpiperazin-1-yl]-8-methylquinolin-3-yl}methyl)pyrazine-2-carboxamide]
22 | 6.60 to 7.30 | Cc1cccc2cc(Cn3cnc4c(N)ncnc43)c(N3CCCC3)nc12 [Compound 171, 9-[(8-methyl-2-pyrrolidin-1-ylquinolin-3-yl)methyl]-9H-purin-6-amine]
23 | 6.60 to 7.30 | Cc1ccccc1-c1cc2ccccc2nc1CNc1ncnc2[nH]cnc12 [Compound 155, N-{[3-(2-methylphenyl)quinolin-2-yl]methyl}-9H-purin-6-amine]
24 | 6.60 to 7.30 | Cc1ccccc1-c1cc2ccccc2nc1Cn1cnc2ncnc(N)c21 [Compound 178, 7-{[3-(2-methylphenyl)quinolin-2-yl]methyl}-7H-purin-6-amine]
25 | 5.82 to 6.30 | Cc1ccccc1-c1cc2ccccc2nc1Cn1cnc2c(N)ncnc21 [Compound 179, 9-{[3-(2-methylphenyl)quinolin-2-yl]methyl}-9H-purin-6-amine]
26 | > 7.30 | CNCCN(C)c1nc2c(C)cccc2cc1Cn1cnc2c(N)ncnc21 [Compound 149, N-{3-[(6-amino-9H-purin-9-yl)methyl]-8-methylquinolin-2-yl}-N,N′-dimethylethane-1,2-diamine]
27 | 5.82 to 6.30 | Cc1cccc2cc(Cn3cnc4c(N)ncnc43)c(NS(C)(=O)=O)nc12 [Compound 153, N-{3-[(6-amino-9H-purin-9-yl)methyl]-8-methylquinolin-2-yl}methanesulfonamide]
28 | 5.82 to 6.30 | Cc1ccccc1-c1nc2ccccc2nc1Cn1cnc2c(N)ncnc21 [Compound 190, 9-{[3-(2-methylphenyl)quinoxalin-2-yl]methyl}-9H-purin-6-amine]
29 | > 7.30 | Cc1ccccc1-c1nc2c(C)cccc2cc1Cn1nc(I)c2c(N)ncnc21 [Compound 134, 3-iodo-1-{[8-methyl-2-(2-methylphenyl)quinolin-3-yl]methyl}-1H-pyrazolo[3,4-d]pyrimidin-4-amine]
